Data from patent US20180265423A1, “Pesticide Dispersion in Concentrated Aqueous Fertilizer Solution” (priority 2014, published 2018).
Where two headings read alike, the source gives them in different places.

Key:
[1] = assay type: physicochemical; conditions: for crystal growth in the fertilizer solutions tested: review of table 2
Text: Crystal formation in a suspension concentrate is a complex phenomenon. It is believed that if the solubility of the suspended solid chemical is high in the medium, the suspension concentrate is prone to form crystals of the suspended solid chemical in storage. […] The concentrations of the solid pesticides used in this example were low (at a typical ready-to-apply concentration range). If a solid pesticide forms crystals in such a low concentration, it is not suitable for a ready-to-apply pesticide suspension and mostly likely will not be suitable for a more concentrated suspension in fertilizer. […] By “not suitable” is meant that although it may work to some extent, it is not a good candidate for the pesticide SC.
Samples were prepared by adding the components followed by hand-shaking.

[2] = Quick screening of crystal growth potential in fertilizer concentrates and water, solid pesticides containing a carboxylic acid group (Example 2); assay type: physicochemical; conditions: for suitability for suspension in fertilizer solutions: review of table 3
Method: Samples were prepared by adding the components followed by hand-shaking. Samples were placed at 0° C. and observation was made after 1 day, unless otherwise specified.

[3] = Study of additional surfactants in 10-34-0, 27-4-0 and diluted 10-34-0 fertilizers (Example 8); assay type: physicochemical
[4] = Stability of 50% clothianidin in 50% URAN 32 fertilizer (Example 6); assay type: physicochemical; conditions: 0.5 g in 100 g URAN 32 fertilizer solution
Method: 0.5 g Witcolate D-510 surfactant was added into 100 g URAN 32 fertilizer solution (50 wt % URAN 32 in water). […] Then 100 g clothianidin was added to the resulting solution and mixed well by hand-shaking. This sample was stable and had about 10% top clear with a smooth bottom suspension after 2 weeks at 40° C.
In other experiments, 0.3% of a pH adjusting agent (40 wt % Citric acid), was included in the SC sample (homogenized sample) and no noticeable effect was observed on stability. Viscosity measurements were made with a Brookfield viscometer at various speeds (rpm) at room temperature with a #64 spindle. This sample was very viscous but it was highly shear-thinning.

[5] = Storage stability of 40% clothianidin SC in 10-34-0 with wetting agent Witcolate D-510 (Example 5); assay type: physicochemical; conditions: clothianidin suspension in 10-34-0
Method: The test samples were prepared by adding 60 grams of 10-34-0 fertilizer (from Plant Food) to a bottle. Then various amounts of Witcolate D-510 (2-ethylhexyl sulfate) were added to the 10-34-0 fertilizer and mixed well. Finally, 40 grams of clothianidin (technical grade) was added to the mixture and mixed well by shaking by hand.

[6] = 1 wt % powder pesticide, 98 wt % 10-34-0, 1 wt % Witcolate D-510
[7] = 1 wt % powder pesticide, 98 wt % 40% AMS, 1 wt % Witcolate D-510
[8] = 1 wt % powder pesticide, 98 wt % URAN 32, 1 wt % Witcolate D-510
[9] = 1 wt % powder pesticide, 98 wt % Water, 1 wt % Witcolate D-510
[10] = powder pesticide (glyphosate acid 2, 2,4-D acid 1.3, others 1 wt %) in 10-34-0, no wetting agent
[11] = powder pesticide (glyphosate acid 2, 2,4-D acid 1.3, others 1 wt %) in 10-34-0, no wetting agent, 0° C., 1 day unless otherwise specified
[12] = powder pesticide (glyphosate acid 2, 2,4-D acid 1.3, others 1 wt %) in 40% AMS, no wetting agent
[13] = powder pesticide (glyphosate acid 2, 2,4-D acid 1.3, others 1 wt %) in 40% AMS, no wetting agent, 0° C., 1 day unless otherwise specified
[14] = powder pesticide (glyphosate acid 2, 2,4-D acid 1.3, others 1 wt %) in URAN 32, no wetting agent, 0° C., 1 day unless otherwise specified
[15] = powder pesticide (glyphosate acid 2, 2,4-D acid 1.3, others 1 wt %) in Water, no wetting agent
[16] = powder pesticide (glyphosate acid 2, 2,4-D acid 1.3, others 1 wt %) in Water, no wetting agent, 0° C., 1 day unless otherwise specified
[17] = 1 wt % powder pesticide in 99 wt % 10-34-0, no wetting agent
[18] = 1 wt % powder pesticide in 99 wt % 40% AMS, no wetting agent
[19] = 1 wt % powder pesticide in 99 wt % URAN 32, no wetting agent
[20] = 1 wt % powder pesticide in 99 wt % Water, no wetting agent
[21] = 30 wt % powder pesticide in 70 wt % 10-34-0, no wetting agent

Cc1c(COC(=O)[C@@H]2[C@H](/C=C(\Cl)C(F)(F)F)C2(C)C)cccc1-c1ccccc1 (racemic) [Bifenthrin]
Comment: powder sank or floated [1, 6]: floated | Comment: suitability [1, 6]: Suitable | Comment: powder sank or floated [1, 7]: sank | Comment: suitability [1, 7]: Suitable | Comment: powder sank or floated [1, 8]: floated | Comment: suitability [1, 8]: Suitable | Comment: powder sank or floated [1, 9]: sank | Comment: suitability [1, 9]: Suitable | crystal growth in the fertilizer solutions tested [1]: did not have crystal growth

O=C(O)COc1ccc(Cl)cc1Cl [2,4-D acid]
Comment: suitability [2, 10]: particles. Not suitable | Comment: crystal growth or other change [2, 11]: Crystal growth between powder | Comment: dissolution [2, 11]: Not dissolved | Comment: powder sank or floated [2, 11]: Powder sank | Comment: suitability [2, 12]: particles. Not suitable | Comment: crystal growth or other change [2, 13]: Crystal growth between powder | Comment: dissolution [2, 13]: Not dissolved | Comment: powder sank or floated [2, 13]: Powder sank | Comment: suitability ([2]; powder pesticide (glyphosate acid 2, 2,4-D acid 1.3, others 1 wt %) in URAN 32, no wetting agent): particles. Not suitable | Comment: crystal growth or other change [2, 14]: Crystal growth between powder | Comment: dissolution [2, 14]: Not dissolved | Comment: powder sank or floated [2, 14]: Powder sank | Comment: suitability [2, 15]: particles. Not suitable | Comment: crystal growth or other change [2, 16]: Crystal growth between powder | Comment: dissolution [2, 16]: Not dissolved | Comment: powder sank or floated [2, 16]: Powder sank | suitability for suspension in fertilizer solutions [2]: may not be suitable

CCCCC(CC)COC(=O)CC(C(=O)OCC(CC)CCCC)S(=O)(=O)O.[Na] (stereo not shown) [Aerosol AOT-75, sodium bis (2-ethyl hexyl) sulfosuccinate]
Surfactant Suitability ([3]; 27-4-0 99, surfactant 1 wt): Not suitable | suitability for the fertilizers tested ([3]; review of table 10): not suitable

CCNc1nc(Cl)nc(NC(C)C)n1 [Atrazine]
Comment: powder sank or floated [1, 17]: floated | Comment: suitability [1, 17]: Suitable | Comment: suitability [1, 18]: Suitable | Comment: powder sank or floated [1, 19]: floated | Comment: suitability [1, 19]: Suitable | Comment: suitability [1, 20]: Suitable | Comment: powder sank or floated [1, 6]: floated | Comment: suitability [1, 6]: Suitable | Comment: powder sank or floated [1, 7]: floated | Comment: suitability [1, 7]: Suitable | Comment: powder sank or floated [1, 8]: floated | Comment: suitability [1, 8]: Suitable | Comment: powder sank or floated [1, 9]: sank | Comment: suitability [1, 9]: Suitable | crystal growth in the fertilizer solutions tested [1]: did not have crystal growth

COc1c(Cl)ccc(Cl)c1C(=O)O [Dicamba acid]
Comment: suitability [2, 10]: Not suitable | Comment: crystal growth or other change [2, 11]: Crystal formed at bottom at 0 C. | Comment: crystal growth or other change [2, 13]: Oily drop formed at bottom. | Comment: dissolution [2, 14]: Dissolved | Comment: suitability [2, 15]: Not suitable | Comment: crystal growth or other change [2, 16]: Crystal formed at 0 C. and | suitability for suspension in fertilizer solutions [2]: may not be suitable

CN(C)C(=O)Nc1ccc(Cl)c(Cl)c1 [Diuron]
Comment: powder sank or floated [1, 17]: sank and some floated. | Comment: suitability [1, 17]: Suitable | Comment: suitability [1, 18]: Suitable | Comment: powder sank or floated [1, 19]: sank | Comment: suitability [1, 19]: Suitable | Comment: suitability [1, 20]: Suitable | Comment: suitability [1, 6]: Suitable | Comment: powder sank or floated [1, 7]: sank | Comment: suitability [1, 7]: Suitable | Comment: powder sank or floated [1, 8]: sank | Comment: suitability [1, 8]: Suitable | Comment: powder sank or floated [1, 9]: sank | Comment: suitability [1, 9]: Suitable | crystal growth in the fertilizer solutions tested [1]: did not have crystal growth

O=C(O)CNCP(=O)(O)O [Glyphosate acid]
Comment: dissolution [2, 21]: Powder not dissolved. Powder | Comment: suitability [2, 21]: at room temp. Not suitable | Comment: crystal growth or other change ([2]; 30 wt % powder pesticide in 70 wt % 10-34-0, no wetting agent, at room temp): Crystal growth on container wall | Comment: dissolution [2, 11]: Dissolved at room temp | Comment: suitability [2, 12]: Not suitable | Comment: dissolution [2, 13]: Dissolved | Comment: crystal growth or other change [2, 16]: Crystal growth at room temp | Comment: dissolution [2, 16]: Not dissolved | suitability for suspension in fertilizer solutions [2]: may not be suitable

O=[N+]([O-])NC1=NCCN1Cc1ccc(Cl)nc1 [Imidaclopid]
solubility in URAN 32 [1]: high solubility | Comment: suitability [1, 17]: Suitable | Comment: suitability [1, 18]: Suitable | Comment: dissolution [1, 19]: Dissolved | Comment: suitability [1, 19]: Not suitable | Comment: suitability [1, 20]: Suitable | Comment: suitability [1, 6]: Suitable | Comment: powder sank or floated [1, 7]: sank | Comment: suitability [1, 7]: Suitable | Comment: dissolution [1, 8]: Dissolved | Comment: suitability [1, 8]: Not suitable | Comment: powder sank or floated [1, 9]: sank | Comment: suitability [1, 9]: Suitable | crystal growth in the fertilizer solutions tested [1]: did not have crystal growth

CCCCC(C#N)(Cn1cncn1)c1ccc(Cl)cc1 (stereo not shown) [Myclobutanil]
Comment: powder sank or floated [1, 17]: floated | Comment: suitability [1, 17]: Suitable | Comment: powder sank or floated [1, 18]: sank | Comment: suitability [1, 18]: Suitable | Comment: powder sank or floated [1, 19]: floated | Comment: suitability [1, 19]: Suitable | Comment: powder sank or floated [1, 20]: sank | Comment: suitability [1, 20]: Suitable | Comment: powder sank or floated [1, 6]: floated | Comment: suitability [1, 6]: Suitable | Comment: powder sank or floated [1, 7]: floated | Comment: suitability [1, 7]: Suitable | Comment: powder sank or floated [1, 8]: floated | Comment: suitability [1, 8]: Suitable | Comment: powder sank or floated [1, 9]: sank | Comment: suitability [1, 9]: Suitable | crystal growth in the fertilizer solutions tested [1]: did not have crystal growth

CCCCCCCCCCCC(=O)OCCOCCOCCOCCOCCOCCOCCOCCOCCOCCOCCOCCOCCOCCOCCOCCOCCOCCOCCOCCOCC(OCCOCCOCCOCCOCCOCCOCCOCCOCCOCCOCCOCCOCCOCCOCCOCCOCCOCCOCCOCCO)C1OCC(OCCOCCOCCOCCOCCOCCOCCOCCOCCOCCOCCOCCOCCOCCOCCOCCOCCOCCOCCOCCO)C1OCCOCCOCCOCCOCCOCCOCCOCCOCCOCCOCCOCCOCCOCCOCCOCCOCCOCCOCCOCCO (stereo not shown) [Tween 20, Polysorbate-20]
Appearance ([3]; 27-4-0 99.4, surfactant 0.6 wt): Clear

CCCCC(CC)COS(=O)(=O)[O-].[Na+] (stereo not shown) [Witcolate D510, 2-ethylhexyl sulfate]
Appearance ([3]; 27-4-0 76.6, surfactant 23.4 wt): Clear | dissolution of surfactant in URAN 32 [4]: dissolved in URAN 32 readily

C4-C6 phosphate ester with less than 7EO units (acid form)
surfactant in place of Witcolate D-510 to produce similar clothianidin suspensions [5]: suitable

C810-3EO sulfate [C810-3EO sulfate (40%)]
Appearance ([3]; 27-4-0 89.4, surfactant 10.6 wt): Clear

Sodium C810 sulfate [Sodium C810 sulfate (40%)]
Appearance ([3]; 10-34-0 56.1, Water 30.7, surfactant 13.2 wt): Clear | Appearance ([3]; 27-4-0 81.2, surfactant 18.8 wt): Clear

Sodium Laureth-2 sulfate [Witconate ES-2]
Appearance ([3]; 27-4-0 91.3, surfactant 8.7 wt): Clear
